Tests used:
[1] = Reaction kinetics measurement: second-order rate constants of tetrazines with TCO (stopped-flow photometer, pseudo-first-order); assay type: physicochemical; settings: Second order rate constants with TCO at 37 °C in PBS
Description: Reaction kinetics of tetrazines with standard TCO were determined using pseudo-first-order measurements with an excess of the TCO compound in PBS (pH = 7.4) at 37.0 ± 0.1 °C following the decrease of tetrazine absorbance at 535 nm. Measurements were performed in triplicates using an SX20 stopped-flow photometer (Applied Photophysics, UK) equipped with a 535 nm LED light source. Data analysis was performed using Prism 6 (Graphpad) to determine the observed rate constants which were converted into secondorder rate constants through dividing by the TCO concentration.
Second-order rate constants for the reaction with TCO in PBS at 37 °C were determined by pseudo-first order measurements in a SX20 stopped flow photometer (Applied Photophysics).

[2] = Bench stability by analytical HPLC; assay type: physicochemical
From the text: The stability of [^18F]13 and it precursor (28) was investigated by analytical HPLC.

[3] = Tetrazine core reactivity test with TCO-PNP (analytical HPLC); assay type: physicochemical; settings: after 4 hours at r.t.
Description: The reaction between [^18F]13 TCO-PNP was performed by mixing the formulated [^18F]13 (200 µL) with 5 µL of the commercially available TCO-PNP ester dissolved in DMF (5 mg/mL) in an analytical HPLC vial. […]

CC49-TCO = test: Pretargeted PET/CT imaging in LS174T tumor xenograft bearing mice; assay type: in vivo, Balb/c nude mice
Description: The ability of [^18F]13 to be used as a pretargeting imaging agent was evaluated using a similar pretargeted setup that was used for the ex vivo blocking study in example 7. Mice were administered with CC49-TCO 72 h prior to administration of [^18F]13 where after PET/CT scanning was performed 1 h later. Control animals were injected with unconjugated mAb CC49 instead of CC49-TCO, but were otherwise treated exactly the same. After PET/CT scanning, animals were euthanized and an ex vivo biodistribution performed. […] The tumor uptake was clearly visible. A tumor-to-muscle (T/M) ratio of 20.1 and a tumor-to-blood (T/B) ratio of 1.2 from the image derived data (heart uptake used as surrogate for blood uptake) was determined. The relatively low T/B ratio is likely due to ligation of [^18F]13 with remnant CC49-TCO still circulating in the blood. Clearance of CC49-TCO from blood will most likely increase the ratio drastically. Uptake in tissues beside tumor and blood was low. […]
Pretargeted imaging of [^18F]13 as tested in vivo using the TAG-72 targeting antibody CC49 in human colorectal cancer xenograft tumors LS174T. […] The radioactivity in the tissues were determined using a gamma counter (Wizard^2, Perkin Elmer). Data was corrected for decay, tissue weight and the injected dose of radioactivity. […] Statistical difference between mean %ID/g values were analyzed using Welch's T-test. […]

O=C(O)C(F)(F)F.O=C(O)CN(CCF)Cc1cc(F)cc(-c2nncnn2)c1 [Compound 9, N-(carboxymethyl)-2-fluoro-N-(3-fluoro-5-(1,2,4,5-tetrazin-3-yl)benzyl)ethanaminium 2,2,2-trifluoroacetate]
Rate constant [1]: 87722 M⁻¹ s⁻¹

O=C(O)C(F)(F)F.O=C(O)CN(CCF)Cc1ccc(-c2nncnn2)cc1F [Compound 11, N-(carboxymethyl)-2-fluoro-N-(2-fluoro-4-(1,2,4,5-tetrazin-3-yl)benzyl)ethanaminium 2,2,2-trifluoroacetate]
Rate constant [1]: 74592 M⁻¹ s⁻¹

CC(C)(C)OC(=O)CN(CC(=O)OC(C)(C)C)Cc1ccc(-c2nncnn2)cc1OCCOS(=O)(=O)c1ccc([N+](=O)[O-])cc1 [Compound 28, Di-tert-butyl 2,2'-((2-(2-(((4-nitrophenyl)sulfonyl)oxy)ethoxy)-4-(1,2,4,5-tetrazin-3-yl)benzyl)azanediyl)diacetate]
stability of the precursor ([2]; bench stability, analytical HPLC): decomposed over time
stability of the precursor (time stable) ([2]; dissolved (25 mg/mL) in DMSO and frozen at -20 °C): at least 3 months
stability of the precursor (time stable) ([2]; stored at -20 °C as a solid): ≥ 3 months

O=C(O)C(F)(F)F.O=C(O)CN(CCF)Cc1cccc(-c2nncnn2)c1 [Compound 10, N-(3-(1,2,4,5-tetrazin-3-yl)benzyl)-N-(carboxymethyl)-2-fluoroethanaminium 2,2,2-trifluoroacetate]
Rate constant [1]: 62464 M⁻¹ s⁻¹

O=C(O)C(F)(F)F.O=C(O)CN(CC(=O)O)Cc1ccc(-c2nncnn2)cc1OCCF [Compound 13, 1-Carboxy-N-(carboxymethyl)-N-(2-(2-fluoroethoxy)-4-(1,2,4,5-tetrazin-3-yl)benzyl) methanaminium 2,2,2-trifluoroacetate]
Rate constant [1]: 68478 M⁻¹ s⁻¹

O=C(O)CN(CC(=O)O)Cc1ccc(-c2nncnn2)cc1OCC[18F] [[^18F]13]
ability to react with TCO-PNP [3]: still able to react quantitatively with TCO-PNP
tumor-to-muscle ratio in comparison with [64Cu]Cu-NOTa-PEG7-H-Tz, [111In]Tz-Tg and ZZ (CC49-TCO; PET imaging, Figure 6): highest tumor-to-musle ratio
Uptake in tissues beside tumor and blood (CC49-TCO; PET/CT 1 h p.i., CC49-TCO pretargeted): low
Stability at r.t. over 4 hours ([2]; after 4 hours, Figure 5A): no signs of decomposition
stability (time stable) ([2]; analytical HPLC, r.t.): at least 4 hours

O=C(O)C(F)(F)F.O=C(O)CN(CCF)Cc1ccc(-c2nncnn2)cc1 [Compound 12, N-(4-(1,2,4,5-tetrazin-3-yl)benzyl)-N-(carboxymethyl)-2-fluoroethanaminium 2,2,2-trifluoroacetate]
Rate constant [1]: 54999 M⁻¹ s⁻¹
